From patent US10450279B2 (priority 2014, dated 2019)

Assays:
Assay type in all cases: cell-based
Details in all cases: relative growth vs active compound-free control (100%), 405 nm, 7 days after inoculation
Septoria tritici = test: Activity against leaf blotch on wheat caused by Septoria tritici (Septtr), microtiterplate test
Pyricularia oryzae = tested on: Pyricularia oryzae
Botrytis cinerea = test: Activity against the grey mold Botrytis cinerea in the microtiterplate test (Botrci)

Structure (SMILES) | Growth (%) at 8 ppm Septtr (Septoria tritici) | Growth (%) at 31 ppm Pyrior (Pyricularia oryzae) | Growth (%) at 31 ppm Botrci (Botrytis cinerea)
CCC(O)(Cn1cncn1)c1ccc(Oc2ccc(Cl)cc2Cl)cc1Cl (stereo not drawn) [compound 52] | 0% | 1% | 3%
CC(O)(Cn1cncn1)c1ccc(Oc2ccc(Cl)cc2)cc1C(F)(F)F (stereo not drawn) [compound 24] | 0% | 0% | 0%
CC(C)(C)C(O)(Cn1cncn1)c1ccc(Oc2ccccc2C(F)(F)F)cc1 (stereo not drawn) [compound 47] | 0% | 1% | 15%
CC(C)(C)C(O)(Cn1cncn1)c1ccc(Oc2ccc(Cl)cc2)cc1 (stereo not drawn) [compound 43] | 0% |  | 3%
CC(O)(Cn1cncn1)c1ccc(Oc2ccc(Cl)cc2Cl)cc1Cl (stereo not drawn) [compound 32] | 12% | 3% | 9%
CC(O)(Cn1cncn1)c1ccc(Oc2ccc(F)cc2F)cc1Cl (stereo not drawn) [compound 34] | 0% | 0% | 1%
CC(C)(C)C(O)(Cn1cncn1)c1ccc(Oc2ccc(C(F)(F)F)cc2)cc1 (stereo not drawn) [compound 48] | 0% | 1% | 
CCC(O)(Cn1cncn1)c1ccc(Oc2ccc(F)cc2)cc1Cl (stereo not drawn) [compound 50] | 0% | 9% | 2%
CC(O)(Cn1cncn1)c1ccc(Oc2ccc(F)cc2)cc1C(F)(F)F (stereo not drawn) [compound 28] | 0% | 7% | 0%
CC(O)(Cn1cncn1)c1ccc(Oc2ccc(C(F)(F)F)cc2)cc1Cl (stereo not drawn) [compound 36] |  | 14% | 
OC(Cn1cncn1)(c1ccc(Oc2ccc(Cl)cc2)cc1Cl)C1CC1 (stereo not drawn) [compound 42] | 0% | 1% | 3%
CCC(O)(Cn1cncn1)c1ccc(Oc2ccc(F)cc2F)cc1Cl (stereo not drawn) [compound 51] | 0% | 0% | 0%
CC(O)(Cn1cncn1)c1ccc(Oc2ccc(F)cc2F)cc1C(F)(F)F (stereo not drawn) [compound 29] | 5% | 0% | 0%
CC(O)(Cn1cncn1)c1ccc(Oc2ccccc2C(F)(F)F)cc1C(F)(F)F (stereo not drawn) [compound 26] | 1% |  | 
CCC(O)(Cn1cncn1)c1ccc(Oc2ccc(C(F)(F)F)cc2)cc1Cl (stereo not drawn) [compound 54] | 0% | 2% | 4%
CC(C)(C)C(O)(Cn1cncn1)c1ccc(Oc2ccc(Cl)cc2Cl)cc1 (stereo not drawn) [compound 46] | 4% | 2% | 6%
CC(O)(Cn1cncn1)c1ccc(Oc2ccc(Cl)cc2Cl)cc1C(F)(F)F (stereo not drawn) [compound 25] | 0% | 2% | 3%
OC(Cn1cncn1)(c1ccc(Oc2ccc(F)cc2F)cc1Cl)C1CC1 (stereo not drawn) [compound 41] | 0% | 0% | 1%
CC(O)(Cn1cncn1)c1ccc(Oc2ccc(C(F)(F)F)cc2)cc1C(F)(F)F (stereo not drawn) [compound 27] | 0% | 1% | 18%
OC(Cn1cncn1)(c1ccc(Oc2ccccc2C(F)(F)F)cc1Cl)C1CC1 (stereo not drawn) [compound 38] | 1% | 1% | 2%
CC(O)(Cn1cncn1)c1ccc(Oc2ccccc2C(F)(F)F)cc1Cl (stereo not drawn) [compound 35] | 0% | 1% | 1%
CC(O)(Cn1cncn1)c1ccc(Oc2ccc(F)cc2)cc1Cl (stereo not drawn) [compound 33] | 1% | 0% | 0%
CC(O)(Cn1cncn1)c1ccc(Oc2ccc(Cl)cc2)cc1Cl (stereo not drawn) [compound 31] | 0% | 2% | 3%
CCC(O)(Cn1cncn1)c1ccc(Oc2ccc(Cl)cc2)cc1Cl (stereo not drawn) [compound 49] | 3% | 1% | 2%
CC(C)(C)C(O)(Cn1cncn1)c1ccc(Oc2ccc(F)cc2F)cc1 (stereo not drawn) [compound 45] | 0% | 1% | 0%
OC(Cn1cncn1)(c1ccc(Oc2ccc(Cl)cc2Cl)cc1Cl)C1CC1 (stereo not drawn) [compound 39] | 14% | 2% | 0%
OC(Cn1cncn1)(c1ccc(Oc2ccc(F)cc2)cc1Cl)C1CC1 (stereo not drawn) [compound 37] | 0% | 1% | 1%
CC(C)(C)C(O)(Cn1cncn1)c1ccc(Oc2ccc(F)cc2)cc1 (stereo not drawn) [compound 44] | 0% | 0% | 1%
CCC(O)(Cn1cncn1)c1ccc(Oc2ccccc2C(F)(F)F)cc1Cl (stereo not drawn) [compound 53] | 0% | 2% | 3%
OC(Cn1cncn1)(c1ccc(Oc2ccc(C(F)(F)F)cc2)cc1Cl)C1CC1 (stereo not drawn) [compound 40] | 2% | 1% | 8%
